# Test results: patent publication US20130096100A1, “DI(ARYLAMINO)ARYL COMPOUND” (ASTELLAS PHARMA INC., priority 2007, published 2013)
# Experiments:
# [1] = test system: human non-small cell lung cancer cell line HCC827 cells (mutant EGFR protein-expressing cells); assay: Inhibitory effect against anchorage-independent cell growth of HCC827 cells (Test Example 4); format: cell-based; conditions: 120 h, spheroid plate, 5 days, CellTiter-Glo
# Method: (§1) In a 96-well spheroid plate (Sumilon Celltight Spheroid 96U; Sumitomo Bakelite Co., Ltd., Japan), human non-small cell lung cancer cell line NCI-H2228 cells were seeded at 2000 cells per well in RPMI1640 medium (Invitrogen) containing 10% fetal bovine serum. NCI-H2228 cells are those expressing another EML4-ALK fusion protein, which is different from the EML4-ALK fusion protein v1 because it is encoded by an EML4-ALK fusion polynucleotide whose fusion point on EML4 cDNA is different from that of the EML4-ALK fusion polynucleotide v1, but whose ALK region is the same as that of the EML4-ALK fusion polynucleotide v1. The above NCI-H2228 cells seeded in the plate were cultured overnight under 5% CO2 at 37° C., followed by addition of a test compound (final concentration: 10 μM to 1 nM). As a negative control, DMSO used as a solvent was added at the same concentration as the test compound. Then, the cells were cultured under 5% CO2 at 37° C. for 5 days. A cell counting reagent (CellTiter-Glo™ Luminescent Cell Viability Assay; Promega) was added and agitated for 20 minutes, followed by measurement with a luminometer (ML3000 microtiter plate luminometer; Dynatech Laboratories).
# Evaluation of Inhibitory Effect Against Anchorage-Independent Cell Growth of Human Non-Small Cell Lung Cancer Cell Line HCC827 Cells (Mutant EGFR (with Partial Deletion of Exon 19 in EGFR) Protein-Expressing Cells, American Type Culture Collection)
# Evaluation was performed in the same manner as shown in Test Example 3.
# [2] = test system: human non-small cell lung cancer cell line NCI-H2228 cells (EML4-ALK fusion protein-expressing cells); assay: Inhibitory effect against anchorage-independent cell growth of NCI-H2228 cells (Test Example 3); format: cell-based; conditions: 120 h, spheroid plate, 5 days, CellTiter-Glo
# Description: Measurement for anchorage-independent cell growth (colony method, etc) has been known to be a system for investigating the anticancer action (pharmacological effect) of test compounds (Clinical Oncology, second edition, Cancer and Chemotherapy Publishers Inc.). In place of the colony method, there is a following method using spheroid plates for measuring the growth of non-attached cells.
# as §1
# [3] = target: T1, EML4-ALK fusion protein v1 (Homo sapiens, UniProt Q9UM73, D1529E/I1461V/K1491R); assay: Inhibitory activity against the kinase activity of EML4-ALK fusion protein v1 (Test Example 1); format: biochemical; conditions: ATP 100 μM, reaction 1 hour, HTRF KinEASE-TK
# T1 construct: FLAG (N); made in house
# T1 sequence (Q9UM73 with tags, fused parts or gaps I1461V/K1491R/D1529E): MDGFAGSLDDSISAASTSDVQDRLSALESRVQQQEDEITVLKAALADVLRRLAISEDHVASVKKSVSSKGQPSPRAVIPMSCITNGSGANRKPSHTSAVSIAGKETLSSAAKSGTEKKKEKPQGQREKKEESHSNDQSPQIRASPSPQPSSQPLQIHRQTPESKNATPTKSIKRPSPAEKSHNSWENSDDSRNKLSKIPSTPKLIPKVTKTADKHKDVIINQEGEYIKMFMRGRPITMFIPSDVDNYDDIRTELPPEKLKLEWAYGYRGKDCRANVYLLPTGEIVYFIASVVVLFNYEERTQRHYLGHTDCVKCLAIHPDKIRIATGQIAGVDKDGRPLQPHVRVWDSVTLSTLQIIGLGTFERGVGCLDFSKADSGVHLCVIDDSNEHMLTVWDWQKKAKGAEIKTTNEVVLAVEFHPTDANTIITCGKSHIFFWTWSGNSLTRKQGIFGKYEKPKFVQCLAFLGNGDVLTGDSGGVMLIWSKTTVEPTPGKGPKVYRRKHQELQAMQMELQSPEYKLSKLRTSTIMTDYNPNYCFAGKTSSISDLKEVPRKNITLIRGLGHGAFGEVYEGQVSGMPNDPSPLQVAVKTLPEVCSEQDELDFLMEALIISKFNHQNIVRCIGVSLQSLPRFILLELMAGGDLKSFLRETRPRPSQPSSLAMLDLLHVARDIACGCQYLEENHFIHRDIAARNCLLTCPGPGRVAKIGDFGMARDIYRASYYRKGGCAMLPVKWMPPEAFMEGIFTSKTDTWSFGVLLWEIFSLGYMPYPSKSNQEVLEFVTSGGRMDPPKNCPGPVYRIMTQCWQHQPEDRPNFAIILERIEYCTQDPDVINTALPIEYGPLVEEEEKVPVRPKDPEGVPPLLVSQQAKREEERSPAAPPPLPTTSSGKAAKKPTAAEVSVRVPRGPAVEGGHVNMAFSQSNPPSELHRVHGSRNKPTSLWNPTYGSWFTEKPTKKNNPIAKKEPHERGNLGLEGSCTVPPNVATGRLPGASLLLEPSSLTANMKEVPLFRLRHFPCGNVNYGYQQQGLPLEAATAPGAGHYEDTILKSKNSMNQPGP
# Method: (§2) EML4-ALK fusion protein v1 (purified from BA/F3 cells expressing EML4-ALK fusion protein v1) was investigated for its phosphorylation activity toward a peptide substrate by using a kinase activity detection kit (HTRF KinEASE-TK; Cisbio Inc.). […] The ATP concentration used was 100 μM. Another reaction solution was prepared to contain the enzyme protein but no test compound (in which the solvent DMSO alone was added at 0.4% in place of the test compound), followed by reaction in the same manner with or without ATP addition. […] The concentration causing 50% inhibition (IC50) was calculated for each test compound by the logistic regression method.
# (§3) N-terminally FLAG-tagged EML4-ALK fusion protein v1 was inserted into a vector pMX-iresCD8 capable of co-expression of insert cDNA and cell surface antigen CD8 (J. Biol. Chem., 2001, vol. 276, p. 39012-39020) to create a vector FLAG-EML4-ALKv1/pMX-iresCD8 expressing both FLAG-EML4-ALKv1 and CD8. FLAG-EML4-ALKv1/pMX-iresCD8 was used to create a recombinant retrovirus in the same manner as described above and infected into mouse lymphoid cell line BA/F3 cells. Using a magnetic bead reagent for cell separation and a purification column (anti-CD8 monoclonal antibody immobilized on magnetic beads and a MiniMACS purification column; both are products of Miltenyi Biotec Inc.), cell surface CD8-expressing cells were purified conveniently. […] After washing 3 times with PBS, the cells were lysed in a lysis solution (50 mM Tris.HCl (pH 7.4), 150 mM NaCl, 1% Triton X100, 5 mM EDTA, 5 mM EGTA, 1 mM NaVO4, 1 mM DTT and protease inhibitor cocktail complete). The EML4-ALK fusion protein v1 present in the supernatant obtained after centrifugation was purified using ANTI-FLAG M2 Affinity Gel (SIGMA-ALDRICH Inc.) according to the method described in the product information document.
# (§4) The EML4-ALK fusion protein v1 purified as above was investigated for its phosphorylation activity toward a peptide substrate using a kinase activity detection kit (HTRF KinEASE-TK; Cisbio Inc.). Using TK substrate 1, which was included in the kit, as the substrate, and after adding no ATP or 100 μM ATP, the mixtures were reacted at room temperature for 1 hour, and the count of HTRF was detected as recommended by the Kits manufacturer.
# [4] = target: T1, EML4-ALK fusion protein v1; assay: Inhibitory effect of compounds against the in vitro kinase activity of EML4-ALK fusion protein v1, single concentration (Test Example 12(3)); format: biochemical; conditions: final concentration 10 μM
# Description: as §3, §4
# [5] = test system: v1 expressing 3T3 cells (tumor); assay: Antitumor effect on v1 expressing 3T3 cells inoculated in nude mice (Test Example 13); format: in vivo; conditions: oral 10 mg/kg once a day for 14 days, started 7 days after inoculation, BALB/c nude mice
# Method: 3×10^6 cells of v1 expressing 3T3 cells suspended in PBS were inoculated subcutaneously by injection to the back of 5 weeks old male BALB/c nude mice (Charles River Japan, Inc.). […] Administrations were performed once a day for 14 days, and body weight and tumor size were measured every other day. Tumor volume was calculated using the following formula.
# [Tumor volume (mm^3)]=[Tumor major axis (mm)]×[tumor minor axis (mm)]^2×0.5
# The antitumor effect of compound D was investigated by the similar procedure with the following exceptions. The administration of the compound was started after 6 days of the inoculation and carried out once a day for 10 days.
# [6] = target: T2, Mutant EGFR (L858R) protein (Homo sapiens, UniProt P00533, L858R); assay: Inhibitory activity against the kinase activity of mutant EGFR (L858R) protein (Test Example 2); format: biochemical; conditions: ATP 5 μM, reaction 1 hour, HTRF KinEASE-TK
# T2 construct: purchased Cana Biosciences Inc., Japan (sic; Carna Biosciences)
# T2 sequence (P00533 25-1210 L858R): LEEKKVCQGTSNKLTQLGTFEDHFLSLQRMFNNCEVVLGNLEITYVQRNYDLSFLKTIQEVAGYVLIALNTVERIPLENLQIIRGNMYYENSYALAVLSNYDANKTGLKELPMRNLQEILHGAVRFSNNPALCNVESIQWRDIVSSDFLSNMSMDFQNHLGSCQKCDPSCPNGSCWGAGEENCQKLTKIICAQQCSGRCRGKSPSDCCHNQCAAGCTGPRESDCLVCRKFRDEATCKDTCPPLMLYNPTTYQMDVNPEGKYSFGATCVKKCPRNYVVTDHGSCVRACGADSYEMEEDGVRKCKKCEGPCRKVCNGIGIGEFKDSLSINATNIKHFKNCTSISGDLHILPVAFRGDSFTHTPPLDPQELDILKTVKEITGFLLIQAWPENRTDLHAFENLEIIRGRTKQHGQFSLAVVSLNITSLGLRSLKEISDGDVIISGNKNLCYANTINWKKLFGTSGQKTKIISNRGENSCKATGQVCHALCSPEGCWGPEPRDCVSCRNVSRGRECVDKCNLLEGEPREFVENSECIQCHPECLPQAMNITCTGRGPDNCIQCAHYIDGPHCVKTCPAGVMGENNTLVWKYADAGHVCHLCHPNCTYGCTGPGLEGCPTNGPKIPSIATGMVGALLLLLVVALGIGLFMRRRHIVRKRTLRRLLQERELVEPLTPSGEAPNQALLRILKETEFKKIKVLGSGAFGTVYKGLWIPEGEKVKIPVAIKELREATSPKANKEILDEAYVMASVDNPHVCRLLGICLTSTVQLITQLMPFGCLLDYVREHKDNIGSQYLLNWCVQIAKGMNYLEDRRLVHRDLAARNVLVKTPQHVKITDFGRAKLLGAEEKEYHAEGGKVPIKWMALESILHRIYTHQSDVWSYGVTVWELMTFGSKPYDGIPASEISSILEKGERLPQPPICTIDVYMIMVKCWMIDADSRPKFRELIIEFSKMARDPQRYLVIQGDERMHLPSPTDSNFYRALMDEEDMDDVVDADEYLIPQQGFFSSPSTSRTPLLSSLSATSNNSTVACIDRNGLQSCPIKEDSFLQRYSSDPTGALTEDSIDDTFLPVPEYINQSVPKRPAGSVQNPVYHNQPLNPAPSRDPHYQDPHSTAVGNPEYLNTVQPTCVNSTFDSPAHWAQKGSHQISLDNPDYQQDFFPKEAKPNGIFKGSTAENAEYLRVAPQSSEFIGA
# Method: The ATP concentration used was 5 μM. Another reaction solution was prepared to contain the enzyme protein but no test compound (in which the solvent DMSO alone was added at 0.4% in place of the test compound), followed by reaction in the same manner with or without ATP addition. […] The concentration causing 50% inhibition (IC50) was calculated for each test compound by the logistic regression method.
# MUSK = target: T3, MUSK (Homo sapiens, UniProt O15146); assay: Inhibitory activity against the kinase activity of MUSK protein (Test Example 7); format: biochemical; parameters: purchased Carna Biosciences Inc., Japan; conditions: ATP 10 μM, reaction 1 hour, HTRF KinEASE-TK
# T3 sequence (O15146 24-869): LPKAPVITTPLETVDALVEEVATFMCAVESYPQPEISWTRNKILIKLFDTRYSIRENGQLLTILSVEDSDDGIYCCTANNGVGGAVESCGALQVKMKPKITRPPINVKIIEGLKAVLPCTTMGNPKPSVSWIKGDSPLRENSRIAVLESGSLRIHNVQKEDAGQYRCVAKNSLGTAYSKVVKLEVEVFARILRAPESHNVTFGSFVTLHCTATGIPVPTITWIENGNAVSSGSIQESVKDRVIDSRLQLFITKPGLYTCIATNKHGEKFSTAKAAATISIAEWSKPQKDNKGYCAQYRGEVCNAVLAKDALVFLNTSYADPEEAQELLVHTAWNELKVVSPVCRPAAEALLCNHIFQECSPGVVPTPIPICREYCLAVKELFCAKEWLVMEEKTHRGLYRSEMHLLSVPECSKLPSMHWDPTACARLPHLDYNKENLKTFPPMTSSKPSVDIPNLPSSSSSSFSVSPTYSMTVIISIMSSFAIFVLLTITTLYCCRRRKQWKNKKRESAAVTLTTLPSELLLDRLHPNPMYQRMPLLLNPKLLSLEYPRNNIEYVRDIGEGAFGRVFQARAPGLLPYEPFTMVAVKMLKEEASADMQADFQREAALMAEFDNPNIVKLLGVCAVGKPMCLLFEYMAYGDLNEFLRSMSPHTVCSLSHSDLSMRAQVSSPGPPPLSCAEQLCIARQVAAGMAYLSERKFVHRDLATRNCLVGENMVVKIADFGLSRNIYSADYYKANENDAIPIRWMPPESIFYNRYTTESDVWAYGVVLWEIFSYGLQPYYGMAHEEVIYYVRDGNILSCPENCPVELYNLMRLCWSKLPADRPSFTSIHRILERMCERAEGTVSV
# Method: as §2, with “MUSK” for “EML4-ALK fusion”, “(Carna Biosciences Inc., Japan)” for “v1 (purified from BA/F3 cells expressing EML4-ALK fusion protein v1)”, “10” for “100”
structure (smiles),measurement,setting,value
COc1cc(N2CCC3(CCCCN3C)CC2)ccc1Nc1ncnc(Nc2ccccc2S(=O)(=O)C(C)C)n1 [Example 12],IC50,[1],509 nM
same,IC50,[2],134 nM
same,melting point,,132 to 135 °C
same,IC50,[3],61 nM
"O=C(COc1ccc(OC(F)(F)F)cc1)NCc1nc(C(=O)NCCc2cccc(Cl)c2)cs1 [Compound B, N-[2-(3-chlorophenyl)ethyl]-2-[({[4-(trifluoromethoxy)phenoxy]acetyl}amino)methyl]-1,3-thiazole-4-carboxamide]",inhibition at 10 µM,[4],56%
COc1cc(N2CCC(N3CCN(C)CC3)CC2)ccc1Nc1ncnc(Nc2ccccc2S(=O)(=O)NC(C)C)n1 [Example 149],IC50,[1],512 nM
same,IC50,[2],62 nM
same,melting point,,185 to 189 °C
same,IC50,[3],40 nM
COc1cc(N2CCC(N3CCC(O)C3)CC2)ccc1Nc1ncnc(Nc2ccccc2S(=O)(=O)C(C)C)n1 (stereo not shown) [Example 63],IC50,[1],791 nM
same,IC50,[2],96 nM
same,IC50,[3],26 nM
COc1cc(N2CCC3(CCCN3C)CC2)ccc1Nc1ncnc(Nc2ccccc2S(=O)(=O)C(C)C)n1 [Example 120],IC50,[1],660 nM
same,IC50,[2],168 nM
same,IC50,[3],74 nM
COc1cc(N2CCC(N3CCN(C)CC3)CC2)ccc1Nc1ncc(Cl)c(Nc2ccccc2S(=O)(=O)C(C)C)n1 [Compound C],inhibition of the growth of v1 expressing 3T3 cells (tumor),[5],103%
COc1cc(N2CCN(C3CCN(C)CC3)CC2)ccc1Nc1nc(Nc2ccccc2S(=O)(=O)C(C)C)c2ccccc2n1 [Example 45],IC50,[1],1900 nM
same,IC50,[2],1040 nM
same,melting point,,109 to 114 °C
same,IC50,[3],66 nM
"CNS(=O)(=O)c1ccccc1Nc1ncnc(Nc2ccc(N3CCC(N4CCN(C)CC4)CC3)cc2OC)n1 [Example 7, 2-{[4-({2-methoxy-4-[4-(4-methylpiperazin-1-yl)piperidin-1-yl]phenyl}amino)-1,3,5-triazin-2-yl]amino}-N-methylbenzenesulfonamide]",IC50,[1],214 nM
same,IC50,[2],87 nM
same,IC50,[3],50 nM
"COc1cc2ncnc(Nc3ccc(O)c(Br)c3)c2cc1OC [Compound A, 4-[(3′-bromo-4′-hydroxyphenyl)amino]-6,7-dimethoxyquinazoline]",inhibition at 10 µM,[4],99%
COc1cc(N(C)C2CCN(C)CC2)ccc1Nc1ncnc(Nc2ccccc2S(=O)(=O)C(C)C)n1 [Example 52],IC50,[1],820 nM
same,IC50,[2],159 nM
same,IC50,[3],72 nM
COc1cc(N2CC(N3CCN(C)CC3)C2)ccc1Nc1ncnc(Nc2ccccc2S(=O)(=O)C(C)C)n1 [Example 176],IC50,[1],496 nM
same,IC50,[2],119 nM
same,IC50,[3],150 nM
COc1cc(N2CCN(C)CC2)ccc1Nc1ncnc(Nc2ccccc2S(=O)(=O)C(C)C)n1 [Example 24],IC50,[1],1030 nM
same,IC50,[2],125 nM
same,IC50,[3],29 nM
COc1cc(N2CCC(N3CCN(C)CC3)CC2)ccc1Nc1ncnc(Nc2ccccc2S(=O)(=O)N(C)C)n1 [Example 128],IC50,[6],98 nM
same,IC50,[1],175 nM
same,IC50,[2],64 nM
same,IC50,MUSK,1800 nM
same,melting point,,167 to 170 °C
same,IC50,[3],2.3 nM
COc1cc(N2CCC(N3CCN(C)CC3)CC2)ccc1Nc1ncnc(Nc2ccccc2S(=O)(=O)N(C)C(C)C)n1 [Example 166],IC50,[1],419 nM
same,IC50,[2],125 nM
same,melting point,,162 to 164 °C
same,IC50,[3],49 nM
COc1cc(N2CCC(N3CCN(C)CC3)CC2)ccc1Nc1ncnc(Nc2ccccc2S(=O)(=O)NC2CC2)n1 [Example 171],IC50,[1],252 nM
same,IC50,[2],61 nM
same,IC50,[3],33 nM
COc1cc(N2CCC(N3CCCC3)CC2)ccc1Nc1ncnc(Nc2ccccc2S(=O)(=O)C(C)C)n1 [Example 58],IC50,[1],648 nM
same,IC50,[2],156 nM
same,IC50,[3],25 nM
COc1cc(N2CCNCC2)ccc1Nc1ncnc(Nc2ccccc2S(=O)(=O)C(C)C)n1 [Example 72],IC50,[1],670 nM
same,IC50,[2],93 nM
same,IC50,[3],51 nM
